{"source": "paper PMC5444695", "about": "“CM363, a novel naphthoquinone derivative which acts as multikinase modulator and overcomes imatinib resistance in chronic myelogenous leukemia” (Oncotarget, 2016)", "key": {"MRC.5 cells": {"test_system": "MRC.5 cells", "assay": "MTT cell viability assay, MRC.5 cells", "format": "cell-based", "conditions": "Homo sapiens, MRC5, MRC.5 non-malignant lung fibroblasts, 48 h, read-out: IC50 (μM) Mean ± SD", "procedure": "(§1) All cell lines were purchased from the American Type Culture Collection (ATCC). The cell lines were growth at 37°C under 5% CO2 under humidified atmosphere. The cell lines K562 (derived from patients during the blast crisis phase of CML and IM sensitive), K562-R (IM resistance human CML), KmycBT15I (KBTI; IM resistant human CML, expressing the Bcr-Abl […] mutant), HEL (human erythroleukemia), HL60 (human acute myeloid leukemia), MOLM-13 (human acute myeloid leukemia), MV4.11 (human acute monocytic leukemia), HCT-15 (human colorectal adenocarcinoma), PC3 (human prostate cancer), MCF7 (human breast cancer), NCTC3749 (mouse lymphoma) as well as the MRC.5 cells (non-malignant human lung fibroblasts) were maintained in RPMI-1640 medium. The cell lines L1210 (mouse lymphocytic leukemia cells), Raw (mouse macrophage), HeLa (human epithelial cervix cancer), U-2 OS (human osteosarcoma), MG63 (human osteosarcoma) and T47D (human breast cancer adenocarcinoma) were maintained in DMEM. HEK293 cells stably expressing the GH receptor (HEKGHR) were maintained in DMEM-F12 medium. […]\n(§2) Cells were seeded in 96-well plates (BD Falcon, France) at exponential growth density (5000–20000 cells/well) and treated with vehicle (0.05% DMSO) or compound (0.01 to 10 μM) for 48–72 h. […] Optical density was measured at 595 nm with the iMark Microplate Reader (BioRad, CA, USA)."}, "K562 cells": {"test_system": "K562 cells", "assay": "MTT cell viability assay, K562 cells", "format": "cell-based, human", "conditions": "for IC50: Homo sapiens", "procedure": "All cell lines were purchased from the American Type Culture Collection (ATCC). The cell lines were growth at 37°C under 5% CO2 under humidified atmosphere. The cell lines K562 (derived from patients during the blast crisis phase of CML and IM sensitive), K562-R (IM resistance human CML), KmycBT15I (KBTI; IM resistant human CML, expressing the Bcr-Abl […] mutant), HEL (human erythroleukemia), HL60 (human acute myeloid leukemia), MOLM-13 (human acute myeloid leukemia), MV4.11 (human acute monocytic leukemia), HCT-15 (human colorectal adenocarcinoma), PC3 (human prostate cancer), MCF7 (human breast cancer), NCTC3749 (mouse lymphoma) as well as the MRC.5 cells (non-malignant human lung fibroblasts) were maintained in RPMI-1640 medium. The cell lines L1210 (mouse lymphocytic leukemia cells), Raw (mouse macrophage), HeLa (human epithelial cervix cancer), U-2 OS (human osteosarcoma), MG63 (human osteosarcoma) and T47D (human breast cancer adenocarcinoma) were maintained in DMEM. HEK293 cells stably expressing the GH receptor (HEKGHR) were maintained in DMEM-F12 medium. The human breast cancer cell line SKBR3 was maintained in McCoy’s 5A medium. Cell culture medium was supplemented with 10% FBS, L-glutamine (2 mM) and PEST. In addition, the cell culture medium for T47D was supplemented with 1 mM NaPyr and 10 mM HEPES. Human peripheral blood mononuclear cells (PBMC) were isolated from heparin-anticoagulated blood of healthy volunteers by centrifugation with Ficoll-Paque Plus (Amersham Biosciences).\nCells were seeded in 96-well plates (BD Falcon, France) at exponential growth density (5000–20000 cells/well) and treated with vehicle (0.05% DMSO) or compound (0.01 to 10 μM) for 48–72 h. The mitochondrial metabolization of the tetrazolium salt 3-(4,5-methyltiazol-2yl-)-2,5diphenyl-tetrazolium bromide] (MTT) (Applichen, Germany) was used as indicator of cell viability. Optical density was measured at 595 nm with the iMark Microplate Reader (BioRad, CA, USA)."}, "T47D cells": {"test_system": "T47D cells", "assay": "MTT cell viability assay, T47D cells", "format": "cell-based", "conditions": "Homo sapiens, 48 h, read-out: IC50 (μM) Mean ± SD", "procedure": "as §1, §2"}, "HeLa cells": {"test_system": "HeLa cells", "assay": "MTT cell viability assay, HeLa cells", "format": "cell-based", "conditions": "Homo sapiens, 48 h, read-out: IC50 (μM) Mean ± SD", "procedure": "as §1, §2"}, "MG63 cells": {"test_system": "MG63 cells", "assay": "MTT cell viability assay, MG63 cells", "format": "cell-based", "conditions": "Homo sapiens, MG-63, MG63, 48 h, read-out: IC50 (μM) Mean ± SD", "procedure": "as §1, §2"}, "L1210 cells": {"test_system": "L1210 cells", "assay": "MTT cell viability assay, L1210 cells", "format": "cell-based", "conditions": "Mus musculus, L1210, 48 h, read-out: IC50 (μM) Mean ± SD", "procedure": "as §1, §2"}, "SKBR3 cells": {"test_system": "SKBR3 cells", "assay": "MTT cell viability assay, SKBR3 cells", "format": "cell-based", "conditions": "Homo sapiens, SK-BR-3, SKBR3, 48 h, read-out: IC50 (μM) Mean ± SD"}, "[1]": {"test_system": "IM resistant K562 cells (K562-R)", "assay": "Live-cell imaging (IncuCyte HD) of proliferation, IM resistant K562 cells", "format": "cell-based", "conditions": "Homo sapiens, 96 h, 4-day period, area under curve, read-out: IC50AUC, cytostatic effect on cell growth", "procedure": "Kinetic measurements of cell proliferation and cytotoxicity were carried out by using the IncuCyte^TM HD real time imaging system (Essen BioScience, Hertfordshire, United Kingdom). After seeding in a polylysine-coated 96 well-plates, K562 cells were treated with different concentrations of compound. This IncuCyte™ microscope permits the acquisition of automated phase contrast images. Individual images are processed by an imbedded contrast-based confluence algorithm, which compute monolayer confluence for each image and at each time point. Multiple images are collected per well and averaged to provide a representative statistical measure of confluence."}, "[2]": {"assay": "Body weight of xenografted mice", "format": "in vivo", "conditions": "CM363 10 mg/kg i.p., 25 days", "procedure": "Six weeks old female athymic mice (NOD-SCID), were purchased from Charles River River (Barcelona, Spain), and were housed in a specifically designed pathogen-free isolation facility as reported previously. The mice were subcutaneously inoculated into the right flank with 2.5 × l0^6 K562 cells in 100 μL of RPMI-1640 medium and 100 μL of Matrigel. When tumors became palpable, mice were randomized into three groups (n = 8 per group); the control group (receiving vehicle alone- DMSO: PEG-400: sterile water at 5:25:70 (w/v)), the group receiving CM363 10 mg/Kg or the group receiving the positive control IM 40 mg/kg. The vehicle and CM363 treatments were administered via intraperitoneal injection (i.p.) every day except Saturday and Sunday. While IM was administered orally using the same schedule. The study was conducted over a 25 days period. Caliper measurements of the tumor diameters were performed twice per week, and the tumor volume was estimated as the volume of an ellipse using the following formula: V = 4/3n × (a/2) × (b/2)^2, where a and b correspond to the longest and shortest diameter, respectively. Mice were sacrificed when their tumor diameters reached 2 cm, or when they became moribund. Differences in tumor volumes between control and treated group were evaluated using the Mann-Whitney test."}, "MOLM.13 cells": {"test_system": "MOLM.13 cells", "assay": "MTT cell viability assay, MOLM.13 cells", "format": "cell-based", "conditions": "Homo sapiens, MOLM.13, 48 h, read-out: IC50 (μM) Mean ± SD", "procedure": "as §1, §2"}, "pTyr694-Stat5 (pYStat5)": {"test_system": "pTyr694-Stat5 (pYStat5)", "assay": "Immunoblotting of constitutive pYStat5 in K562 cells", "format": "cell-based", "conditions": "Homo sapiens; K562, 3 μM CM363, 3 h", "procedure": "Then, cells were rinsed with cold PBS-vanadate (1 mM) followed by preparation of whole lysis extract with RIPA (Pierce, Illinois, USA). Equal amounts of each sample were separated by SDS-PAGE and transfered onto nitrocellulose membranes. After being blocked with 1% BSA-1% Blotto (anti-phospho-antibodies) (Santa Cruz Biotechnology, CA, USA) or 5% blotto (anti-total-antibodies) (Santa Cruz Biotechnology, CA, USA) (both diluted in Tris buffered saline with 0.05% Tween 20), membranes were immunoblotted overnight at 4°C with dilution (1:1000) in the same buffer of blocking of primary phosphoprotein or total protein antibodies. […] To control for differences in loading and transfer efficiency across membranes, membranes were incubated with a monoclonal mouse anti-beta actin antibody (Santa Cruz Biotechnology, CA, USA). The phosphoprotein array analysis of K562 cells was carried out by using the Profiler Human Phospho-Kinase Array Kit ARY003B (R&D Systems, Minneapolis, MN, USA) according to the manufacturer`s instructions."}, "NCTC cells": {"test_system": "NCTC cells", "assay": "MTT cell viability assay, NCTC cells", "format": "cell-based", "conditions": "Mus musculus, 48 h, read-out: IC50 (μM) Mean ± SD", "procedure": "as §1, §2"}, "Raw cells": {"test_system": "Raw cells", "assay": "MTT cell viability assay, Raw cells", "format": "cell-based", "conditions": "Mus musculus, 48 h, read-out: IC50 (μM) Mean ± SD", "procedure": "as §1, §2"}}, "note": "Like-named read-outs stand apart in the source and are kept apart here.", "data": [{"smiles": "N#Cc1ccc(C2C3=C(CCCC3=O)OC3=C2C(=O)c2ccccc2C3=O)cc1", "note": "(stereo not drawn) [CM363, 4-(1,6,11-trioxo-2,3,4,6,11,12-hexahydro-1H-benzo[b]xanthen-12-yl)benzonitrile]", "values": [{"measurement": "IC50", "setting": "MRC.5 cells", "result": 3.5, "unit": "µM"}, {"measurement": "IC50", "setting": "K562 cells; IM sensitive K562, 72 h, MTT (Fig 10D), read-out: IC50, cell viability", "result": "~0.6", "unit": "µM"}, {"measurement": "IC50", "setting": "K562 cells; K562, 48 h, MTT, read-out: IC50 (μM) Mean ± SD", "result": "0.7 ± 0.5", "unit": "µM"}, {"measurement": "lowest concentration at which inhibition was detected", "setting": "K562 cells; IM sensitive K562, 72 h, MTT (Fig 10D)", "result": 0.3, "unit": "µM"}, {"measurement": "IC50", "setting": "T47D cells", "result": "1.3 ± 1.2", "unit": "µM"}, {"measurement": "IC50", "setting": "HeLa cells", "result": "4.8 ± 0.4", "unit": "µM"}, {"measurement": "IC50", "setting": "MG63 cells", "result": "1.6 ± 0.9", "unit": "µM"}, {"measurement": "IC50", "setting": "L1210 cells", "result": "3.4 ± 0.4", "unit": "µM"}, {"measurement": "IC50", "setting": "SKBR3 cells", "result": "2.6 ± 0.8", "unit": "µM"}, {"measurement": "IC50", "setting": "[1]", "result": "500 ± 100", "unit": "nM"}, {"measurement": "body weight", "setting": "[2]", "result": "no significant body weight reduction"}, {"measurement": "IC50", "setting": "MOLM.13 cells", "result": "0.7 ± 1.1", "unit": "µM"}, {"measurement": "inhibition at 3 µM", "setting": "pTyr694-Stat5 (pYStat5)", "result": 20, "unit": "%"}, {"measurement": "IC50", "setting": "NCTC cells", "result": "1.1 ± 0.7", "unit": "µM"}, {"measurement": "IC50", "setting": "Raw cells", "result": "0.1 ± 0.2", "unit": "µM"}]}]}
